The target of one data set is T1, human PDE4B1 (Homo sapiens, UniProt Q07343).
T1 construct: host or cells: Sf9 cells
As to the kind of experiment: cAMP HTRF assay to determine the activity of hPDE4B1. Type of data set: biochemical. To be noted: inhibition of PDE4B at a test concentration of 1 μM. A digest of the protocol: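 […], using HTRF quantitation of residual cAMP after 1 mM IBMX stop and 60 min detection. Enzyme was Sf9-expressed human PDE4B1 incubated 30 min at room temperature with 40 nM final cAMP at pH 7.8.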

T1 sequence (Q07343 whole entry): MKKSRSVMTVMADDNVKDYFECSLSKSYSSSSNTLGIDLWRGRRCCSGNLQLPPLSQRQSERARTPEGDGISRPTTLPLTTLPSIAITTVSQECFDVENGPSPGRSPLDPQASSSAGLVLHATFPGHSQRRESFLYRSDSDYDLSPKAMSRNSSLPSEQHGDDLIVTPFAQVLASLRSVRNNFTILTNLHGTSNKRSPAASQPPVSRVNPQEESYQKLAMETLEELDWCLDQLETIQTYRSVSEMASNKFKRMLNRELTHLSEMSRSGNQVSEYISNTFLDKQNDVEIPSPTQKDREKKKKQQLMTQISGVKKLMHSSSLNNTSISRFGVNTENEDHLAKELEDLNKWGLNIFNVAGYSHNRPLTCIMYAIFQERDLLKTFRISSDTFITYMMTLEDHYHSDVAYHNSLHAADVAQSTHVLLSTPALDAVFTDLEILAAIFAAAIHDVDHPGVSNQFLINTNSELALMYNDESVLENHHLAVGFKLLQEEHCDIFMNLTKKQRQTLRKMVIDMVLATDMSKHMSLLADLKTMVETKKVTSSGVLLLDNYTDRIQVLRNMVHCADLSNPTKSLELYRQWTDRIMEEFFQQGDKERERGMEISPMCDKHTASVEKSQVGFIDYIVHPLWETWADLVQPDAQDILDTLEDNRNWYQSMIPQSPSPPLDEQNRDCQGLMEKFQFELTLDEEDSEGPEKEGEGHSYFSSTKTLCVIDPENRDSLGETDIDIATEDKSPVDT

With `C[S+]([O-])c1cn(-c2ncc(-c3cc(C#N)ccc3F)cn2)c2cc(C(=O)N3CCOCC3)ccc12` (centres unmarked) [Example 2, 4-Fluoro-3-(2-(3-(methylsulfinyl)-6-(morpholine-4-carbonyl)-1H-indol-1yl)pyrimidin-5-yl)benzonitrile], the melting point was 262 to 266 °C. At human PDE4B1, the inhibition at 1 µM turned out to be 98%.
For `C[S+]([O-])c1cn(-c2ncc(-c3ccccc3Cl)cn2)c2cc(C(=O)N3CCOCC3)ccc12` (centres unmarked) [Example 3, (1-(5-(2-Chlorophenyl)pyrimidin-2-yl)-3-(methylsulfinyl)-1H-indol-6-yl)(morpholino) methanone], in that order: 226 to 230 °C and 98%.
For `C[S+]([O-])c1cn(-c2ncc(-c3ccccc3)cn2)c2cc(C(=O)N3CCOCC3)ccc12` (centres unmarked) [Example 4, (3-(Methylsulfinyl)-1-(5-phenylpyrimidin-2-yl)-1H-indol-6-yl)(morpholino) methanone], in that order: 239 to 242 °C and 82%.
For `CS(=O)(=O)c1cn(-c2ncc(-c3ccc(F)cc3F)cn2)c2cc(C(=O)N3CCOCC3)ccc12` [Example 6, (1-(5-(2,4-Difluorophenyl)pyrimidin-2-yl)-3-(methylsulfonyl)-1H-indol-6-yl)(morpholino)methanone], in that order: 247 to 252 °C and 88%.
The compound `CS(=O)(=O)c1cn(-c2ncc(-c3ccc(C(N)=O)cc3F)cn2)c2cc(C(=O)N3CCOCC3)ccc12` [Example 7, 3-Fluoro-4-(2-(3-(methylsulfonyl)-6-(morpholine-4-carbonyl)-1H-indol-1-yl)pyrimidin-5-yl)benzamide] returned a melting point of 263 to 266 °C. The inhibition at 1 µM at human PDE4B1 was determined as 88%.
For `CS(=O)(=O)c1cn(-c2ncc(-c3ccccc3C#N)cn2)c2cc(C(=O)N3CCOCC3)ccc12` [Example 8, 2-(2-(3-(Methylsulfonyl)-6-(morpholine-4-carbonyl)-1H-indol-1-yl)pyrimidin-5-yl)benzonitrile], in that order: 265 to 269 °C and 50%.
For `CS(=O)(=O)c1cn(-c2ncc(-c3ccccc3Cl)cn2)c2cc(C(=O)N3CCOCC3)ccc12` [Example 9, (1-(5-(2-Chlorophenyl)pyrimidin-2-yl)-3-(methylsulfonyl)-1H-indol-6-yl)(morpholino)methanone], in that order: 235 to 239 °C and 78%.
For `CS(=O)(=O)c1cn(-c2ncc(-c3ccccc3)cn2)c2cc(C(=O)N3CCOCC3)ccc12` [Example 10, (3-(Methylsulfonyl)-1-(5-phenylpyrimidin-2-yl)-1H-indol-6-yl)(morpholino) methanone], in that order: 270 to 274 °C and 74%.
The compound `CS(=O)(=O)c1cn(-c2ncc(-c3ccccc3F)cn2)c2cc(C(=O)N3CCOCC3)ccc12` [Example 11, (1-(5-(2-Fluorophenyl)pyrimidin-2-yl)-3-(methylsulfonyl)-1H-indol-6-yl)(morpholino)methanone] came in with a melting point of 267 to 270 °C. For the same compound, the inhibition at 1 µM against human PDE4B1 turned out to be 109%.
For `C[S+]([O-])c1cn(-c2ncc(-c3ccccc3)cn2)c2cc(C(=O)N3CCNCC3)ccc12` (centres unmarked) [Example 12, (3-(Methylsulfinyl)-1-(5-phenylpyrimidin-2-yl)-1H-indol-6-yl)(piperazin-1-yl)methanone], in that order: 193 to 197 °C and 33%.
For `C[S+]([O-])c1cn(-c2ncc(-c3ccccc3F)cn2)c2cc(C(=O)N3CCNCC3)ccc12` (centres unmarked) [Example 13, (1-(5-(2-Fluorophenyl)pyrimidin-2-yl)-3-(methylsulfinyl)-1H-indol-6-yl)(piperazin-1-yl)methanone], in that order: 199 to 203 °C and 51%.
For `C[S+]([O-])c1cn(-c2ncc(-c3ccc(F)cc3F)cn2)c2cc(C(=O)N3CCNCC3)ccc12` (centres unmarked) [Example 14, (1-(5-(2,4-Difluorophenyl)pyrimidin-2-yl)-3-(methylsulfinyl)-1H-indol-6-yl)(piperazin-1-yl)methanone], in that order: 198 to 201 °C and 38%.
In the case of `C[S+]([O-])c1cn(-c2ncc(-c3cc(C#N)ccc3F)cn2)c2cc(C(=O)N3CCNCC3)ccc12` (centres unmarked) [Example 17, 4-Fluoro-3-(2-(3-(methylsulfinyl)-6-(piperazine-1-carbonyl)-1H-indol-1-yl)pyrimidin-5-yl)benzonitrile], the melting point fell in the range of 159 to 163 °C. The inhibition at 1 µM at human PDE4B1 amounted to 41%.
For `C[S+]([O-])c1cn(-c2ncc(-c3ccc(F)cc3F)cn2)c2cc(C(=O)N3CCOCC3)ccc12` (centres unmarked) [Example 18, (1-(5-(2,4-Difluorophenyl)pyrimidin-2-yl)-3-(methylsulfinyl)-1H-indol-6-yl)(morpholino)methanone], in that order: 230 to 233 °C and 91%.
For `C[S+]([O-])c1cn(-c2ncc(-c3ccc(C(N)=O)cc3F)cn2)c2cc(C(=O)N3CCOCC3)ccc12` (centres unmarked) [Example 19, 3-Fluoro-4-(2-(3-(methylsulfinyl)-6-(morpholine-4-carbonyl)-1H-indol-1-yl)pyrimidin-5-yl)benzamide], in that order: 202 to 206 °C and 94%.
For `C[S+]([O-])c1cn(-c2ncc(-c3ccccc3C#N)cn2)c2cc(C(=O)N3CCOCC3)ccc12` (centres unmarked) [Example 20, 2-(2-(3-(Methylsulfinyl)-6-(morpholine-4-carbonyl)-1H-indol-1-yl)pyrimidin-5-yl)benzonitrile], in that order: 277 to 281 °C and 74%.
Regarding `CS(=O)(=O)c1cn(-c2ncc(-c3ccccc3F)cn2)c2cc(C(=O)N3CCNCC3)ccc12` [Example 24, (1-(5-(2-Fluorophenyl)pyrimidin-2-yl)-3-(methylsulfonyl)-1H-indol-6-yl)(piperazin-1-yl)methanone], the melting point was in the range of 206 to 210 °C. Also, the inhibition at 1 µM against human PDE4B1 is 41%.
For `CS(=O)(=O)c1cn(-c2ncc(-c3cc(C#N)ccc3F)cn2)c2cc(C(=O)N3CCNCC3)ccc12` [Example 26, 4-Fluoro-3-(2-(3-(methylsulfonyl)-6-(piperazine-1-carbonyl)-1H-indol-1-yl)pyrimidin-5-yl)benzonitrile], in that order: 279 to 283 °C and 41%.
As for `O=C(c1ccc2c(CO)cn(-c3ncc(-c4ccccc4F)cn3)c2c1)N1CCOCC1` [Example 27, (1-(5-(2-Fluorophenyl)pyrimidin-2-yl)-3-(hydroxymethyl)-1H-indol-6-yl)(morpholino)methanone], the melting point was in the range of 190 to 194 °C. On human PDE4B1, the inhibition at 1 µM came out at 79%.
For `CC[S+]([O-])c1cn(-c2ncc(-c3ccccc3F)cn2)c2cc(C(=O)N3CCOCC3)ccc12` (centres unmarked) [Example 29, (3-(Ethylsulfinyl)-1-(5-(2-fluorophenyl)pyrimidin-2-yl)-1H-indol-6-yl)(morpholino)methanone], in that order: 122 to 126 °C and 57%.
For `COc1ccnc(-c2cnc(-n3cc([S+](C)[O-])c4ccc(C(=O)N5CCOCC5)cc43)nc2)c1` (centres unmarked) [Example 141, (1-(5-(4-Methoxypyridin-2-yl)pyrimidin-2-yl)-3-(methylsulfinyl)-1H-indol-6-yl)(morpholino)methanone], in that order: 216 to 220 °C and 115%.
For `C[S+]([O-])c1cn(-c2ncc(-c3ccnc(O)c3)cn2)c2cc(C(=O)N3CCOCC3)ccc12` (centres unmarked) [Example 143, (1-(5-(2-Hydroxypyridin-4-yl)pyrimidin-2-yl)-3-(methylsulfinyl)-1H-indol-6-yl)(morpholino)methanone], in that order: 262 to 265 °C and 65%.
As to `C[S+]([O-])c1cn(-c2ncc(-c3cccnn3)cn2)c2cc(C(=O)N3CCOCC3)ccc12` (centres unmarked) [Example 144, (3-(Methylsulfinyl)-1-(5-(pyridazin-3-yl)pyrimidin-2-yl)-1H-indol-6-yl)(morpholino)methanone], the melting point lay in the range of 261 to 265 °C. Besides, on human PDE4B1, the inhibition at 1 µM is 47%.
`C[S+]([O-])c1cn(-c2ncc(-c3cscn3)cn2)c2cc(C(=O)N3CCOCC3)ccc12` (centres unmarked) [Example 145, (3-(Methylsulfinyl)-1-(5-(thiazol-4-yl)pyrimidin-2-yl)-1H-indol-6-yl)(morpholino)methanone] yielded a melting point of 254 to 257 °C. Besides, the inhibition at 1 µM against human PDE4B1 came to 83%.
For `C[S+]([O-])c1cn(-c2ncc(-c3cc(N)ccc3F)cn2)c2cc(C(=O)N3CCOCC3)ccc12` (centres unmarked) [Example 146, (1-(5-(5-Amino-2-fluorophenyl)pyrimidin-2-yl)-3-(methylsulfinyl)-1H-indol-6-yl)(morpholino)methanone], in that order: 188 to 192 °C and 118%.
For `C[S+]([O-])c1cn(-c2ncc(-c3cc(O)ccn3)cn2)c2cc(C(=O)N3CCOCC3)ccc12` (centres unmarked) [Example 147, (1-(5-(4-Hydroxypyridin-2-yl)pyrimidin-2-yl)-3-(methylsulfinyl)-1H-indol-6-yl)(morpholino)methanone], in that order: 272 to 276 °C and 67%.
`C[S+]([O-])c1cn(-c2ncc(-c3cccc(O)c3)cn2)c2cc(C(=O)N3CCOCC3)ccc12` (centres unmarked) [Example 149, (1-(5-(3-Hydroxyphenyl)pyrimidin-2-yl)-3-(methylsulfinyl)-1H-indol-6-yl)(morpholino)methanone] displayed a melting point of 249 to 253 °C. Moreover, the inhibition at 1 µM against human PDE4B1 turned out to be 87%.
In the case of `C[S+]([O-])c1cn(-c2ncc(-c3ccncc3F)cn2)c2cc(C(=O)N3CCOCC3)ccc12` (centres unmarked) [Example 150, (1-(5-(3-Fluoropyridin-4-yl)pyrimidin-2-yl)-3-(methylsulfinyl)-1H-indol-6-yl)(morpholino)methanone], the melting point was 241 to 244 °C. At human PDE4B1, the inhibition at 1 µM amounted to 49%.

What is called melting point is the temperature of the solid-liquid transition. As usually defined, the inhibition is the change of the read-out against control, counted positive when it falls.

Source of the values: US9315490B2, “2,5-substituted pyrimidines” (Grünenthal GmbH, priority 2014, dated 2016).
